# ChEMBL document CHEMBL1130697, “C24 and C25 substituted marcfortine A derivatives” (Bioorg Med Chem Lett, 1998)
# Activity calls are given as the source filed them. The calls are words filed in the database; no cut-off is given here.
# Test system: Gerbillinae
# Experiment: Anthelmintic activity against immunosuppressed Mongolian gerblis(jirds) inoculated with Haemonchus contortus and Trichostrongylus colubriform; not active
# Type: functional
row,SMILES,Activity
1,CN1C(=O)[C@@]23CCCCN2C[C@@]12C[C@@]1(C(=O)Nc4c1ccc1c4OCC(=O)C(C)(C)O1)C(C)(C)[C@H]2C3,inactive
2,CN1C(=O)[C@@]23CCCCN2C[C@@]12C[C@@]1(C(=O)Nc4c1ccc1c4OCC4(CO4)C(C)(C)O1)C(C)(C)[C@H]2C3 (stereo not given in full),inactive
3,C=C1COc2ccc3c(c2OC1)NC(=O)[C@@]31C[C@@]23CN4CCCC[C@]4(C[C@@H]2C1(C)C)C(=O)N3C,inactive
4,CC1=COc2c(ccc3c2NC(=O)[C@@]32C[C@@]34CN5CCCC[C@]5(C[C@@H]3C2(C)C)C(=O)N4C)OC1(C)C,inactive
5,CN1C(=O)[C@@]23CCCCN2C[C@@]12C[C@@]1(C(=O)Nc4c1ccc1c4OCC(C)(O)C(C)(C)O1)C(C)(C)[C@H]2C3 (stereo not given in full),inactive
6,CN1C(=O)[C@@]23CCCCN2C[C@@]12C[C@@]1(C(=O)Nc4c1ccc(O)c4O)C(C)(C)[C@H]2C3,inactive
7,CN1C(=O)[C@@]23CCCCN2C[C@@]12C[C@@]1(C(=O)Nc4c1ccc1c4OCC(O)C(C)(C)O1)C(C)(C)[C@H]2C3 (stereo not given in full),inactive
8,CN1C(=O)[C@]23C[C@@H]4C(C)(C)[C@@]5(C[C@@]41CN2CC[C@@]3(C)O)C(=O)Nc1c5ccc2c1OC=CC(C)(C)O2,inactive
9,CN1C(=O)[C@@]23CCCCN2C[C@@]12C[C@@]1(C(=O)Nc4c1ccc1c4OC=CC(C)(C)O1)C(C)(C)[C@H]2C3,inactive

# Test system: Gerbillinae
# Experiment: Anthelmintic activity against immunosuppressed Mongolian gerblis(jirds) inoculated with Haemonchus contortus and Trichostrongylus colubriform;found to be active
# Type: functional
row,SMILES,Activity
1,C=C1COc2c(ccc3c2NC(=O)[C@@]32C[C@@]34CN5CCCC[C@]5(C[C@@H]3C2(C)C)C(=O)N4C)OC1(C)C,Active
